# System: MDA-231 cancer cells
# Test: Inhibition of proliferation assay, cell confluence (IncuCyte live cell imaging)
# Assay type: cell-based
# Conditions: MDA-231 cells, concentration 10 uM; relative confluence normalised to time zero, images every 3 h over 4-5 d
# Excerpt: Inhibition of Proliferation Assay Cell Confluence The confluence value is a surrogate for cell proliferation and growth. The value is expressed as a percent confluence, which represents the fraction of culture dish-surface that is occupied by cells. As the number of cells in the dish increases over time due to proliferation, so will their coverage of that surface increase. Expansion of the cell population on the cell culture-dish surface and confluence have mostly a linear relationship until the cells on the plate surface begin to reach saturation or maximum density. Confluence is determined based on image analysis. Image based software can identify objects in the image field base on changes to pixel density in a grey scale image. The software can then assign a mask to those pixels within the object. Objects can be ‘gated’ out based on size and shape. To determine cell confluence, images of cells are first masked as objects. The surface area of the image that is masked is measured and compared to the total surface area of the culture dish surface to obtain a percent confluence. MDA-231 cancer cells were obtained from ATCC. Cells were cultured in Dulbecco's Modified Eagle Medium (DMEM) supplemented with 10% Fetal Bovine Serum (FBS), 2 mM Glutamax, 1 mM Non Essential Amino Acid (NEAA) solution and 1 mM sodium pyruvate. Compounds were dissolved in DMSO at 10 mM and diluted in cellular medium and tested at 10 μM (micromolar). Final DMSO concentrations were <0.1%. Images were acquired with an IncuCyte Live Cell Imaging microscopy (Essen Bioscience) at every 3 h under cell culture conditions with 10× objective over 4-5 d. Cell confluence was calculated from one field of view per well using the IncuCyte in-built algorithm. Relative confluence values were obtained by normalising each value to the time zero value in each sample.
row,SMILES,% Confluence [%]
1,"CC[C@H]1OC(=O)[C@H](C)[C@@H](O[C@H]2C[C@@](C)(OC)[C@@H](O)[C@H](C)O2)[C@H](C)[C@@H](O[C@@H]2O[C@H](C)C[C@H](N(C)C)[C@H]2O)[C@](C)(O)C[C@@H](C)CN(C(=O)CCCCCCCC[P+](c2ccccc2)(c2ccccc2)c2ccccc2)[C@H](C)[C@@H](O)[C@]1(C)O [Example 3, {9-[(2R,3S,4R,5R,8R,10R,11R,12S,13S,14R)-11-{[(2S,3R,4S,6R)-4-(dimethylamino)-3-hydroxy-6-methyloxan-2-yl]oxy}-2-ethyl-3,4,10-trihydroxy-13-{[(2R,4R,5S,6S)-5-hydroxy-4-methoxy-4,6-dimethyloxan-2-yl]oxy}-3,5,8,10,12,14-hexamethyl-15-oxo-1-oxa-6-azacyclopentadecan-6-yl]-9-oxononyl}triphenylphosphonium hexafluorophosphate(V)]",98.4
2,"CC[C@H]1OC(=O)[C@H](C)[C@@H](O[C@H]2C[C@@](C)(OC)[C@@H](O)[C@H](C)O2)[C@H](C)[C@@H](O[C@@H]2O[C@H](C)C[C@H](N(C)C)[C@H]2O)[C@](C)(O)C[C@@H](C)CN(CCCCCCCCCC[PH](c2ccccc2)(c2ccccc2)c2ccccc2)[C@H](C)[C@@H](O)[C@]1(C)O [Example 14, {10-[(2R,3S,4R,5R,8R,10R,11R,12S,13S,14R)-11-{[(2S,3R,4S,6R)-4-(dimethylamino)-3-hydroxy-6-methyloxan-2-yl]oxy}-2-ethyl-3,4,10-trihydroxy-13-{[(2R,4R,5S,6S)-5-hydroxy-4-methoxy-4,6-dimethyloxan-2-yl]oxy}-3,5,8,10,12,14-hexamethyl-15-oxo-1-oxa-6-azacyclopentadecan-6-yl]decyl}triphenylphosphonium iodide]",10.1
3,"CC[C@H]1OC(=O)[C@H](C)[C@@H](O[C@H]2C[C@@](C)(OC)[C@@H](O)[C@H](C)O2)[C@H](C)[C@@H](O[C@@H]2O[C@H](C)C[C@H](N(C)C)[C@H]2O)[C@](C)(O)C[C@@H](C)CN(C)[C@H](C)[C@@H](OC(=O)NCCCCCC[P+](c2ccccc2)(c2ccccc2)c2ccccc2)[C@]1(C)O.[Br-] [Example 17, (2R,3R,4R,5R,8R,10R,11R,12S,13S,14R)-11-{[(2S,3R,4S,6R)-4-(dimethylamino)-3-hydroxy-6-methyloxan-2-yl]oxy}-2-ethyl-3,10-dihydroxy-13-{[(2R,4R,5S,6S)-5-hydroxy-4-methoxy-4,6-dimethyloxan-2-yl]oxy}-3,5,6,8,10,12,14-heptamethyl-15-oxo-1-oxa-6-azacyclopentadecan-4-yl N-[6-(triphenylphosphoniumyl)hexyl]carbamate bromide]",82.6
4,"CC[C@H]1OC(=O)[C@H](C)[C@@H](O[C@H]2C[C@@](C)(OC)[C@@H](O)[C@H](C)O2)[C@H](C)[C@@H](O[C@@H]2O[C@H](C)C[C@H](N(C)C)[C@H]2O)[C@](C)(O)C[C@@H](C)CN(CCCCCC[P+](c2ccccc2)(c2ccccc2)c2ccccc2)[C@H](C)[C@@H](O)[C@]1(C)O [Example 8, {6-[(2R,3S,4R,5R,8R,10R,11R,12S,13S,14R)-11-{[(2S,3R,4S,6R)-4-(dimethylamino)-3-hydroxy-6-methyloxan-2-yl]oxy}-2-ethyl-3,4,10-trihydroxy-13-{[(2R,4R,5S,6S)-5-hydroxy-4-methoxy-4,6-dimethyloxan-2-yl]oxy}-3,5,8,10,12,14-hexamethyl-15-oxo-1-oxa-6-azacyclopentadecan-6-yl]hexyl}triphenylphosphonium iodide]",109.9
5,"CC[C@H]1OC(=O)[C@H](C)[C@@H](O)[C@H](C)[C@@H](O)[C@](C)(O)C[C@@H](C)CN(C(=O)CCCCCCCCCCCCC[P+](c2ccccc2)(c2ccccc2)c2ccccc2)[C@H](C)[C@@H](O)[C@]1(C)O [Example 16, {14-[(2R,3S,4R,5R,8R,10R,11R,12S,13S,14R)-2-ethyl-3,4,10,11,13-pentahydroxy-3,5,8,10,12,14-hexamethyl-15-oxo-1-oxa-6-azacyclopentadecan-6-yl]-14-oxotetradecyl}triphenylphosphonium hexafluorophosphate(V)]",9.9
6,CC[C@H]1OC(=O)[C@H](C)[C@@H](O[C@H]2C[C@@](C)(OC)[C@@H](O)[C@H](C)O2)[C@H](C)[C@@H](O[C@@H]2O[C@H](C)C[C@H](N(C)C)[C@H]2O)[C@](C)(O)C[C@@H](C)CN(CCCCCC(=O)N(C)CC[P+](c2ccccc2)(c2ccccc2)c2ccccc2)[C@H](C)[C@@H](O)[C@]1(C)O.[Br-] [Example 22],102.7
7,"CC[C@H]1OC(=O)[C@H](C)[C@@H](O[C@H]2C[C@@](C)(OC)[C@@H](O)[C@H](C)O2)[C@H](C)[C@@H](O[C@@H]2O[C@H](C)C[C@H](N(C)C)[C@H]2O)[C@](C)(O)C[C@@H](C)CN(C)[C@H](C)[C@@H](OC(=O)NCCCCCCCC[P+](c2ccccc2)(c2ccccc2)c2ccccc2)[C@]1(C)O.[Br-] [Example 20, (2R,3R,4R,5R,8R,10R,11R,12S,13S,14R)-11-{[(2S,3R,4S,6R)-4-(dimethylamino)-3-hydroxy-6-methyloxan-2-yl]oxy}-2-ethyl-3,10-dihydroxy-13-{[(2R,4R,5S,6S)-5-hydroxy-4-methoxy-4,6-dimethyloxan-2-yl]oxy}-3,5,6,8,10,12,14-heptamethyl-15-oxo-1-oxa-6-azacyclopentadecan-4-yl N-[8-(triphenylphosphoniumyl)octyl]carbamate bromide]",13.5
8,"CC[C@H]1OC(=O)[C@H](C)[C@@H](O[C@H]2C[C@@](C)(OC)[C@@H](O)[C@H](C)O2)[C@H](C)[C@@H](O[C@@H]2O[C@H](C)C[C@H](N(C)C)[C@H]2O)[C@](C)(O)C[C@@H](C)CN(C(=O)CCCCN(C)CC[P+](c2ccccc2)(c2ccccc2)c2ccccc2)[C@H](C)[C@@H](O)[C@]1(C)O.[Br-] [Example 24, [2-({5-[(2R,3S,4R,5R,8R,10R,11R,12S,13S,14R)-11-{[(2S,3R,4S,6R)-4-(dimethylamino)-3-hydroxy-6-methyloxan-2-yl]oxy}-2-ethyl-3,4,10-trihydroxy-13-{[(2R,4R,5S,6S)-5-hydroxy-4-methoxy-4,6-dimethyloxan-2-yl]oxy}-3,5,6,8,10,12,14-hexamethyl-15-oxo-1-oxa-6-azacyclopentadecan-6-yl]-5-oxopentyl}(methyl)amino)ethyl]triphenylphosphonium bromide]",49.1
9,"CC[C@H]1OC(=O)[C@H](C)[C@@H](O[C@H]2C[C@@](C)(OC)[C@@H](O)[C@H](C)O2)[C@H](C)[C@@H](O[C@@H]2O[C@H](C)C[C@H](N(C)C)[C@H]2O)[C@](C)(O)C[C@@H](C)CN(C(=O)CCCCCCC[P+](c2ccccc2)(c2ccccc2)c2ccccc2)[C@H](C)[C@@H](O)[C@]1(C)O [Example 9, {8-[(2R,3S,4R,5R,8R,10R,11R,12S,13S,14R)-11-{[(2S,3R,4S,6R)-4-(dimethylamino)-3-hydroxy-6-methyloxan-2-yl]oxy}-2-ethyl-3,4,10-trihydroxy-13-{[(2R,4R,5S,6S)-5-hydroxy-4-methoxy-4,6-dimethyloxan-2-yl]oxy}-3,5,8,10,12,14-hexamethyl-15-oxo-1-oxa-6-azacyclopentadecan-6-yl]-8-oxooctyl}triphenylphosphonium hexafluorophosphate(V)]",105.3
10,"CC[C@H]1OC(=O)[C@H](C)[C@@H](O[C@H]2C[C@@](C)(OC)[C@@H](O)[C@H](C)O2)[C@H](C)[C@@H](O[C@@H]2O[C@H](C)C[C@H](N(C)C)[C@H]2O)[C@](C)(O)C[C@@H](C)CN(C(=O)CCCCCCCCCCC[P+](c2ccccc2)(c2ccccc2)c2ccccc2)[C@H](C)[C@@H](O)[C@]1(C)O [Example 5, {12-[(2R,3S,4R,5R,8R,10R,11R,12S,13S,14R)-11-{[(2S,3R,4S,6R)-4-(dimethylamino)-3-hydroxy-6-methyloxan-2-yl]oxy}-2-ethyl-3,4,10-trihydroxy-13-{[(2R,4R,5S,6S)-5-hydroxy-4-methoxy-4,6-dimethyloxan-2-yl]oxy}-3,5,8,10,12,14-hexamethyl-15-oxo-1-oxa-6-azacyclopentadecan-6-yl]-12-oxododecyl}triphenylphosphonium hexafluorophosphate(V)]",5
11,"CC[C@H]1OC(=O)[C@H](C)[C@@H](O)[C@H](C)[C@@H](O[C@@H]2O[C@H](C)C[C@H](N(C)C)[C@H]2O)[C@](C)(O)C[C@@H](C)CN(C(=O)CCCCCCCCCCCCC[P+](c2ccccc2)(c2ccccc2)c2ccccc2)[C@H](C)[C@@H](O)[C@]1(C)O [Example 21, {14-[(2R,3S,4R,5R,8R,10R,11R,12S,13S,14R)-11-{[(2S,3R,4S,6R)-4-(dimethylamino)-3-hydroxy-6-methyloxan-2-yl]oxy}-2-ethyl-3,4,10,13-tetrahydroxy-3,5,8,10,12,14-hexamethyl-15-oxo-1-oxa-6-azacyclopentadecan-6-yl]-14-oxotetradecyl}triphenylphosphonium hexafluorophosphate(V)]",8
